Laboratory results as given in the NIST ThermoML archive (doi:10.1021/je800110r).
Numbers after ± are expanded uncertainties.

Details: 283.15 K, Liquid, Vibrating tube method

CCCCCCCCCC [decane]
Details	mass density [kg/m3]
3625 kPa	740.1 ± 2
3634 kPa	740.1 ± 2
3651 kPa	740.3 ± 2
3666 kPa	740.1 ± 2
3675 kPa	740.1 ± 2
3689 kPa	740 ± 2
3701 kPa	740.1 ± 2
3713 kPa	740.1 ± 2
3724 kPa	740.1 ± 2
3735 kPa	740.2 ± 2
3748 kPa	740.2 ± 2
3759 kPa	740 ± 2
3774 kPa	740.2 ± 2
3789 kPa	740.1 ± 2
3800 kPa	740.1 ± 2
3899 kPa	740.2 ± 2
3917 kPa	740.3 ± 2
3930 kPa	740.1 ± 2
3945 kPa	740.3 ± 2
3957 kPa	740.3 ± 2
3968 kPa	740.3 ± 2
3982 kPa	740.4 ± 2
3992 kPa	740.4 ± 2
4007 kPa	740.4 ± 2
4017 kPa	740.3 ± 2
4031 kPa	740.3 ± 2
4042 kPa	740.3 ± 2
4055 kPa	740.3 ± 2
4085 kPa	740.4 ± 2
4096 kPa	740.2 ± 2
4114 kPa	740.5 ± 2
4129 kPa	740.3 ± 2
4147 kPa	740.4 ± 2
4160 kPa	740.5 ± 2
4179 kPa	740.5 ± 2
4197 kPa	740.4 ± 2
4212 kPa	740.5 ± 2
4229 kPa	740.4 ± 2
4247 kPa	740.5 ± 2
4263 kPa	740.4 ± 2
4277 kPa	740.5 ± 2
4292 kPa	740.5 ± 2
4306 kPa	740.6 ± 2
4321 kPa	740.4 ± 2
4333 kPa	740.6 ± 2
4349 kPa	740.5 ± 2
4362 kPa	740.6 ± 2
4394 kPa	740.6 ± 2
4410 kPa	740.5 ± 2
4424 kPa	740.5 ± 2
4437 kPa	740.5 ± 2
4455 kPa	740.7 ± 2
4468 kPa	740.6 ± 2
4484 kPa	740.7 ± 2
4499 kPa	740.7 ± 2
4514 kPa	740.7 ± 2
4533 kPa	740.6 ± 2
4549 kPa	740.8 ± 2
4565 kPa	740.7 ± 2
4579 kPa	740.7 ± 2
4603 kPa	740.8 ± 2
4628 kPa	740.7 ± 2
4648 kPa	740.8 ± 2
4667 kPa	740.7 ± 2
4770 kPa	740.8 ± 2
4791 kPa	740.9 ± 2
4811 kPa	740.9 ± 2
4835 kPa	740.9 ± 2
5291 kPa	741.2 ± 2
5334 kPa	741.3 ± 2
5356 kPa	741.3 ± 2
5377 kPa	741.3 ± 2
5399 kPa	741.3 ± 2
5421 kPa	741.4 ± 2
5444 kPa	741.4 ± 2
5463 kPa	741.4 ± 2
5486 kPa	741.3 ± 2
5505 kPa	741.3 ± 2
5529 kPa	741.5 ± 2
5549 kPa	741.4 ± 2
5573 kPa	741.5 ± 2
5624 kPa	741.5 ± 2
5644 kPa	741.5 ± 2
5662 kPa	741.5 ± 2
5674 kPa	741.4 ± 2
5686 kPa	741.6 ± 2
5700 kPa	741.6 ± 2
5719 kPa	741.6 ± 2
5736 kPa	741.5 ± 2
5778 kPa	741.6 ± 2
5790 kPa	741.5 ± 2
5806 kPa	741.6 ± 2
5819 kPa	741.7 ± 2
5838 kPa	741.6 ± 2
5851 kPa	741.6 ± 2
5852 kPa	741.7 ± 2
5870 kPa	741.7 ± 2
5887 kPa	741.7 ± 2
5909 kPa	741.6 ± 2
5920 kPa	741.7 ± 2
5926 kPa	741.7 ± 2
5930 kPa	741.8 ± 2
5942 kPa	741.8 ± 2
5960 kPa	741.7 ± 2
5977 kPa	741.8 ± 2
5991 kPa	741.8 ± 2
6008 kPa	741.7 ± 2
6025 kPa	741.8 ± 2
6043 kPa	741.7 ± 2
6063 kPa	741.7 ± 2
6081 kPa	741.8 ± 2
6102 kPa	741.8 ± 2
6122 kPa	741.9 ± 2
6142 kPa	741.8 ± 2
6161 kPa	741.9 ± 2
6626 kPa	742.2 ± 2
6649 kPa	742.2 ± 2
6666 kPa	742.3 ± 2
6683 kPa	742.2 ± 2
6712 kPa	742.2 ± 2
6729 kPa	742.3 ± 2
6755 kPa	742.2 ± 2
6775 kPa	742.3 ± 2
6805 kPa	742.3 ± 2
6826 kPa	742.4 ± 2
6843 kPa	742.2 ± 2
6861 kPa	742.4 ± 2
6877 kPa	742.3 ± 2
6905 kPa	742.4 ± 2
6933 kPa	742.4 ± 2
6948 kPa	742.3 ± 2
6967 kPa	742.4 ± 2
6996 kPa	742.4 ± 2
7021 kPa	742.3 ± 2
7041 kPa	742.4 ± 2
7058 kPa	742.5 ± 2
7077 kPa	742.5 ± 2
